Source: patent publication US20130060013A1, “Compounds useful for treating neurodegenerative disorders” (SATORI PHARMACEUTICALS, INC., priority 2011, published 2013)

What was measured:
Aβ-42 = Aβ-42 level in conditioned media of 2B7 cells (MSD 3-PLEX ELISA); type: cell-based; conditions: Homo sapiens, compound 5 hours at 37° C., 1% DMSO, percent vehicle fit to 4 parameter curve
Experimental: (§1) Assays were conducted to determine the ability of a Compound of Formula I to modulate […], and Aβ-38.
(§2) Plates with capture antibodies were blocked for 1-2 hours at room temperature with 150 μL of the manufactures blocking reagent.
(§3) Cultured 2B7 cells in 96 well plate with 250 uL of media per well until confluent;
(§4) Prepared serial dilutions of compounds in DMSO at 100× the final desired concentration;
(§5) Washed wells with 2B7 cells 1× with 250 uL of media;
(§6) Diluted DMSO stocks 1:100 into media:
(§7) Added 250 μL of media containing compounds (1% DMSO) to wells with 2B7 cells for 5 hours at 37° C.
(§8) Diluted conditioned media: 1 part media with 1% DMSO and 1 part blocking buffer;
(§9) 150 μL of the 250 μL of conditioned media were used.
(§10) Standard Curve Sample Prep:
(§11) Prepared per manufacturer's protocol (see above)
(§12) Seven point standard curve samples were prepared that contained Aβ-42, Aβ-40, and Aβ-38. The highest concentration of Aβ-42 and Aβ-38 was 3,000 pg/mL and the highest concentration of Aβ-40 was 10,000 pg/mL. Subsequent serial dilutions were 1:3 and the final composition of each sample was 1 part blocking buffer and 1 part cell medium containing 1% DMSO.
(§13) Overnight Sample Incubation:
(§14) Blocked plates are washed 5× with MSD wash buffer with a plate washer
(§15) 25 uL of detection antibody and blocker G reagent in MSD blocking solution is added
(§16) 25 uL of samples (1 part conditioned media containing 1% DMSO and 1 part MSD blocking buffer) are then added.
(§17) plates are incubated overnight at 4 degrees C. or 2 hours at room temp
(§18) Wash wells 5× with MSD wash buffer
(§19) Added 150 μL 2×MSD read buffer
(§20) A-Beta peptide levels for each peptide are calculated from the standard curve using the MSD software provided with the MSD 2400 Imager. Percent vehicle values for each compound dosage were then calculated and fit to a 4 parameter curve generating IC50 values.

Aβ-38 = Aβ-38 level in conditioned media of 2B7 cells (MSD 3-PLEX ELISA); type: cell-based; conditions: Homo sapiens, compound 5 hours at 37° C., 1% DMSO, percent vehicle fit to 4 parameter curve
Experimental: as §1, §2, §3, §4, §5, §6, §7, §8, §9, §10, §11, §12, §13, §14, §15, §16, §17, §18, §19, §20

SMILES	IC50 (Aβ-42) [nM]	IC50 (Aβ-38) [nM]
CO[C@@H]([C@H]1C[C@@H](C)[C@H]2[C@H](O1)[C@H](O)[C@@]1(C)[C@@H]3CC[C@H]4C(C)(C)[C@@H](O[C@H]5CNCCO5)CCC45C[C@@]35CC[C@]21C)C(C)(C)OC (stereo partly shown)	< 1000	< 1000
CCO[C@@H]([C@H]1C[C@@H](C)[C@H]2[C@H](O1)[C@H](O)[C@@]1(C)[C@@H]3CC[C@H]4C(C)(C)[C@@H](O[C@H]5CN(C6CN(S(C)(=O)=O)C6)CCO5)CCC45C[C@@]35CC[C@]21C)C(C)(C)O (stereo partly shown)	< 1000	< 1000
CCO[C@@H]([C@H]1C[C@@H](C)[C@H]2[C@H](O1)[C@H](O)[C@@]1(C)[C@@H]3CC[C@H]4C(C)(C)[C@@H](O[C@H]5CN(CC(F)F)CCO5)CCC45C[C@@]35CC[C@]21C)C(C)(C)O (stereo partly shown)	< 1000	1000 to 10000
CCO[C@@H]([C@H]1C[C@@H](C)[C@H]2[C@H](O1)[C@H](O)[C@@]1(C)[C@@H]3CC[C@H]4C(C)(C)[C@@H](O[C@H]5CN(C(CO)CO)CCO5)CCC45C[C@@]35CC[C@]21C)C(C)(C)O (stereo partly shown)	< 1000	< 1000
CCO[C@@H]([C@H]1C[C@@H](C)[C@H]2[C@H](O1)[C@H](O)[C@@]1(C)[C@@H]3CC[C@H]4C(C)(C)[C@@H](O[C@H]5CNCCO5)CCC45C[C@@]35CC[C@]21C)C(C)(C)OCC (stereo partly shown)	1000 to 10000	1000 to 10000
C[C@@H]1C[C@H]([C@H](OCCO)C(C)(C)O)O[C@H]2[C@H]1[C@@]1(C)CC[C@@]34CC35CC[C@H](O[C@H]3CN(C6CN(C7COC7)C6)CCO3)C(C)(C)[C@@H]5CC[C@H]4[C@]1(C)[C@H]2O (stereo partly shown)	1000 to 10000	1000 to 10000
CCO[C@@H]([C@H]1C[C@@H](C)[C@H]2[C@H](O1)[C@H](O)[C@@]1(C)[C@@H]3CC[C@H]4C(C)(C)[C@@H](OC(=O)[C@@H]5CCCN5C(=O)OC(C)(C)C)CCC45C[C@@]35CC[C@]21C)C(C)(C)O (stereo partly shown)	1000 to 10000	1000 to 10000
CCO[C@@H]([C@H]1C[C@@H](C)[C@H]2[C@H](O1)[C@H](O)[C@@]1(C)[C@@H]3CC[C@H]4C(C)(C)[C@@H](OC(=O)[C@H]5CN(C)CCO5)CCC45C[C@@]35CC[C@]21C)C(C)(C)O (stereo partly shown)	< 1000	1000 to 10000
CCO[C@@H]([C@H]1C[C@@H](C)[C@H]2[C@H](O1)[C@H](O)[C@@]1(C)[C@@H]3CC[C@H]4C(C)(C)[C@@H](O[C@H]5CN(Cc6nccs6)CCO5)CCC45C[C@@]35CC[C@]21C)C(C)(C)O (stereo partly shown)	< 1000	1000 to 10000
CCO[C@@H]([C@@H]1C[C@H]2[C@H]([C@H](C)C1)[C@@]1(C)CCC34C[C@@]35CC[C@H](O[C@H]3CN([C@@H](C)C(=O)N(C)C)CCO3)C(C)(C)[C@@H]5CC[C@H]4[C@]1(C)[C@H]2O)C(C)(C)O (stereo partly shown)	< 1000	
CCO[C@@H]([C@H]1C[C@@H](C)[C@H]2[C@H](O1)[C@H](O)[C@]1(C)[C@@H]3CC[C@H]4C(C)(C)[C@@H](O[C@H]5CN([C@H](C)C(=O)N6CCC6)CCO5)CC[C@@]45C[C@@]35CC[C@@]21C)C(C)(C)O	< 1000	< 1000
CNC1CN(C(=O)O[C@H]2CCC34C[C@]35CC[C@]3(C)[C@@H]6[C@H](O[C@@H]([C@H](OC)C(C)(C)O)C[C@H]6C)[C@H](O)[C@@]3(C)[C@@H]5CC[C@H]4C2(C)C)C1 (stereo partly shown)	< 1000	1000 to 10000
CO[C@@H](C1C[C@@H](C)[C@H]2C(O1)[C@H](O)[C@@]1(C)C3CC[C@H]4C(C)(C)[C@@H](O[C@H]5CN(CCN6CCC6)CCO5)CCC45C[C@@]35CC[C@]21C)C(C)(C)O (stereo partly shown)	< 1000	
CCO[C@@H](C1C[C@@H](C)[C@H]2C(O1)[C@H](O)[C@@]1(C)C3CC[C@H]4C(C)(C)[C@@H](O[C@H]5CN(c6ncc(F)cn6)CCO5)CCC45C[C@@]35CC[C@]21C)C(C)(C)O (stereo partly shown)	1000 to 10000	1000 to 10000
CCO[C@@H]([C@H]1C[C@@H](C)[C@H]2[C@H](O1)[C@H](O)[C@]1(C)[C@@H]3CC[C@H]4C(C)(C)[C@@H](O[C@H]5CN([C@H](C)CN6CCC6)CCO5)CC[C@@]45C[C@@]35CC[C@@]21C)C(C)(C)O	< 1000	< 1000
CCO[C@@H]([C@H]1C[C@@H](C)[C@H]2[C@H](O1)[C@H](O)[C@@]1(C)[C@@H]3CC[C@H]4C(C)(C)[C@@H](OC(=O)[C@@H]5COCCN5C(=O)OC(C)(C)C)CCC45C[C@@]35CC[C@]21C)C(C)(C)O (stereo partly shown)	1000 to 10000	1000 to 10000
CCO[C@@H]([C@H]1C[C@@H](C)[C@H]2[C@H](O1)[C@H](O)[C@@]1(C)[C@@H]3CC[C@H]4C(C)(C)[C@@H](O[C@H]5CN(CC(F)(F)F)CCO5)CCC45C[C@@]35CC[C@]21C)C(C)(C)O (stereo partly shown)	1000 to 10000	1000 to 10000
CCO[C@@H]([C@H]1C[C@@H](C)[C@H]2[C@H](O1)[C@H](O)[C@@]1(C)[C@@H]3CC[C@H]4C(C)(C)[C@@H](O[C@H]5CN(Cc6nccn6C)CCO5)CCC45C[C@@]35CC[C@]21C)C(C)(C)O (stereo partly shown)	< 1000	1000 to 10000
CCO[C@@H]([C@H]1C[C@@H](C)[C@H]2[C@H](O1)[C@H](O)[C@@]1(C)[C@@H]3CC[C@H]4C(C)(C)[C@@H](O[C@H]5CN(c6ncccn6)CCO5)CCC45C[C@@]35CC[C@]21C)C(C)(C)O (stereo partly shown)	1000 to 10000	1000 to 10000
CCO[C@@H]([C@H]1C[C@@H](C)[C@H]2[C@H](O1)[C@H](O)[C@@]1(C)[C@@H]3CC[C@H]4C(C)(C)[C@@H](OC(=O)[C@@H]5CNCCO5)CCC45C[C@@]35CC[C@]21C)C(C)(C)O (stereo partly shown)	< 1000	< 1000
CO[C@@H]([C@H]1C[C@@H](C)[C@H]2[C@H](O1)[C@H](O)[C@@]1(C)[C@@H]3CC[C@H]4C(C)(C)[C@@H](O[C@H]5CN(C6(C)COC6)CCO5)CCC45C[C@@]35CC[C@]21C)C(C)(C)O (stereo partly shown)	1000 to 10000	1000 to 10000
CC(C)[C@@H](OC(=O)N1CCC1)[C@H]1C[C@@H](C)[C@H]2[C@H](O1)[C@H](O)[C@@]1(C)[C@@H]3CC[C@H]4C(C)(C)[C@@H](O[C@H]5CN(C(=O)CNS(=O)(=O)C(F)(F)F)CCO5)CCC45C[C@@]35CC[C@]21C (stereo partly shown)	1000 to 10000	< 1000
CCO[C@@H]([C@H]1C[C@@H](C)[C@H]2[C@H](O1)[C@H](O)[C@@]1(C)[C@@H]3CC[C@H]4C(C)(C)[C@@H](OC(=O)C5CN(C6COC6)C5)CCC45C[C@@]35CC[C@]21C)C(C)(C)O (stereo partly shown)	< 1000	1000 to 10000
CCO[C@@H]([C@H]1C[C@@H](C)[C@H]2[C@H](O1)[C@H](O)[C@@]1(C)[C@@H]3CC[C@H]4C(C)(C)[C@@H](O[C@H]5CN(Cc6cncs6)CCO5)CCC45C[C@@]35CC[C@]21C)C(C)(C)O (stereo partly shown)	< 1000	1000 to 10000
CCO[C@@H]([C@H]1C[C@@H](C)[C@H]2[C@H](O1)[C@H](O)[C@@]1(C)[C@@H]3CC[C@H]4C(C)(C)[C@@H](OC(=O)[C@H]5COCCN5C(=O)OC(C)(C)C)CCC45C[C@@]35CC[C@]21C)C(C)(C)O (stereo partly shown)	1000 to 10000	1000 to 10000
CCO[C@@H]([C@H]1C[C@@H](C)[C@H]2[C@H](O1)[C@H](O)[C@@]1(C)[C@@H]3CC[C@H]4C(C)(C)[C@@H](OC(=O)[C@@H]5CN(C(=O)OC(C)(C)C)CCO5)CCC45C[C@@]35CC[C@]21C)C(C)(C)O (stereo partly shown)	< 1000	< 1000
CCO[C@@H]([C@H]1C[C@@H](C)[C@H]2[C@H](O1)[C@H](O)[C@@]1(C)[C@@H]3CC[C@H]4C(C)(C)[C@@H](O[C@H]5CN(Cc6cnn(C)c6)CCO5)CCC45C[C@@]35CC[C@]21C)C(C)(C)O (stereo partly shown)	< 1000	1000 to 10000
CCO[C@@H]([C@H]1C[C@@H](C)[C@H]2[C@H](O1)[C@H](O)[C@@]1(C)[C@@H]3CC[C@H]4C(C)(C)C(O[C@H]5CN(CCNCCNC(=O)CCC6(C)N=N6)CCO5)CC[C@@]45CC35CC[C@]21C)C(C)(C)O (stereo partly shown)	< 1000	1000 to 10000
CCO[C@@H]([C@H]1C[C@@H](C)[C@H]2[C@H](O1)[C@H](O)[C@@]1(C)[C@@H]3CC[C@H]4C(C)(C)[C@@H](OC(=O)[C@H]5CN(C(=O)OC(C)(C)C)CCO5)CCC45C[C@@]35CC[C@]21C)C(C)(C)O (stereo partly shown)	1000 to 10000	1000 to 10000
CCO[C@@H]([C@H]1C[C@@H](C)[C@H]2[C@H](O1)[C@H](O)[C@@]1(C)[C@@H]3CC[C@H]4C(C)(C)[C@@H](OC(=O)[C@@H]5CN(C)CCO5)CC[C@@]45C[C@@]35CC[C@]21C)C(C)(C)O	< 1000	1000 to 10000
